The values that follow come from article PMC10551889 (Bioorganic & medicinal chemistry, 2022).

Each structure is given as a SMILES string. “Also recorded” adds a separate entry of the source.

Data set [1] deals with M. bovis BCG Pasteur ATCC 35734. The data set is classed as cell-based, Mycobacterium bovis BCG.
Data set [2] relates to M. bovis BCG mutant POA2 (PanD Leu132Arg). It counts as cell-based, Mycobacterium bovis BCG.
The target in data set [3] is Mtb PanD (Mycobacterium tuberculosis, UniProt P9WIL3). The experiment in a line: biochemical. It counts as binding.
Sequence of Mtb PanD (P9WIL3 25-139): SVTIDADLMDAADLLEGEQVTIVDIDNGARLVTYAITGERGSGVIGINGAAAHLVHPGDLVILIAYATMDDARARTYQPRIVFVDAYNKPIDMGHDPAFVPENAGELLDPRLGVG
Sequence of Mtb PanD (P9WIL3 1-24): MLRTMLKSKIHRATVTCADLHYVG
Data set [4] concerns Vero cells.

Regarding `CCN(CC)c1cnc(C(=O)[O-])cn1.[Na+]` [compound 73, Sodium 5-(diethylamino)pyrazine-2-carboxylate], the “antimycobacterial activity (in words)” value in data set [1] is on record as “equipotent to the parent POA”.
Same read-out and setting: for `CCCNc1cnc(C(=O)[O-])cn1.[Na+]` [compound 70, Sodium 5-(n-propylamino)pyrazine-2-carboxylate] the value was “Loss of potency”.
As to `O=C([O-])c1nccnc1Nc1ccccc1.[Na+]` [compound 59, Sodium 3-(anilino)pyrazine-2-carboxylate], the “shift in growth inhibition potency against PanD mutant vs wildtype (in words)” value (from here on “shift in growth inhibition potency”) in data set [2] is “moderate shift”.
On to `Cc1ccccc1-c1nccnc1C(=O)[O-].[Na+]` [compound 36, Sodium 3-(o-tolyl)pyrazine-2-carboxylate], for which, in data set [1], the “antimycobacterial activity (in words)” value is “completed obliterated activity”.
In the case of `Nc1cnc(C(=O)O)cn1` [compound 24], the Kd (usually the equilibrium constant for the complex coming apart) in data set [3] lay within 37 to 47 µM. The “shift in growth inhibition potency” value in data set [2] was “moderate shift”.
Regarding `Nc1cncc(C(=O)O)n1` [compound 25, 6-amino-POA], the “antimycobacterial activity (in words)” value in data set [1] is “loss of activity”.
The same measure, in the same setting: for `NS(=O)(=O)c1cnccn1` [compound 14] the value was “inactive or weakly active”.
`CC(=O)c1cnccn1` [compound 16]: in data set [1], the “antimycobacterial activity (in words)” value was “eliminated activity”.
On the same count and under the same terms, for `O=C([O-])c1cnc(NC2CCCC2)cn1.[Na+]` [compound 76, Sodium 5-(cyclopentylamino)pyrazine-2-carboxylate] the value was “Loss of potency”; for `CC(=O)NS(=O)(=O)c1cnccn1` [compound 15, N-(Pyrazin-2-ylsulfonyl)acetamide], “inactive or weakly active”.
Consider `CCCCNc1cnc(C(=O)[O-])cn1.[Na+]` [compound 72, Sodium 5-(n-butylamino)pyrazine-2-carboxylate], for which, in data set [1], the “MIC50 (MIC, concentration that inhibits fifty percent of growth)” value was found to be 400 µM.
As to `O=C([O-])c1cnc(-c2ccccc2)cn1.[Na+]` [compound 39, Sodium 5-(phenyl)pyrazine-2-carboxylate], the “antimycobacterial activity (in words)” value in data set [1] is given as “eliminated activity”.
The same measure, in the same setting: for `O=C([O-])c1nccnc1N1CCCC1.[Na+]` [compound 62, Sodium 3-(pyrrolidine-1-yl)pyrazine-2-carboxylate] the value was “abolished activity”.
The same measure, in the same setting: for `O=C([O-])c1nccnc1N1CCSCC1.[Na+]` [compound 65, Sodium 3-(thiomorpholino)pyrazine-2-carboxylate] the value was “abolished activity”; for `O=C([O-])c1cnc(NC2CCC2)cn1.[Na+]` [compound 48, Sodium 5-(cyclobutylamino)pyrazine-2-carboxylate], “Loss of potency”.
As for `CCN(CC)c1nccnc1C(=O)[O-].[Na+]` [compound 58, Sodium 3-(diethylamino)pyrazine-2-carboxylate], in data set [3], the “PanD binding (in words)” value is “no binding; also recorded: did not bind at all; also recorded: did not bind to PanD”. In addition, in data set [1], the “antimycobacterial activity (in words)” value is recorded as “loss of activity”.
As for `CC(C)(C)Nc1nccnc1C(=O)[O-].[Na+]` [compound 56, Sodium 3-(tert-butylamino)pyrazine-2-carboxylate], the “cytotoxicity at higher concentrations” value in data set [4] was ~ 50%.
As to `CCNc1cnc(C(=O)[O-])cn1.[Na+]` [compound 42, Sodium 5-(ethylamino)pyrazine-2-carboxylate], the “antimycobacterial activity (in words)” value in data set [1] is “Loss of potency”.
As to `O=C([O-])c1cncc(-c2ccccc2)n1.[Na+]` [compound 40, Sodium 6-phenylpyrazine-2-carboxylate], in data set [1], the “fold less potent than POA” value is on record as about 2 fold.
Consider `O=C([O-])c1nccnc1N1CCOCC1.[Na+]` [compound 64, Sodium 3-(morpholino)pyrazine-2-carboxylate], for which, in data set [1], the “antimycobacterial activity (in words)” value is “abolished activity”.
`Nc1nccnc1C(=O)O` [compound 23] returned a Kd in data set [3] of 37 to 47 µM. Also, the “shift in growth inhibition potency” value in data set [2] is “minimal shift”.
For `O=C([O-])c1cncc(NC(=O)C2CCCCC2)n1.[Na+]` [compound 80, Sodium 6-(cyclohexanecarboxamido)pyrazine-2-carboxylate], in data set [1], the “antimycobacterial activity (in words)” value is on record as “obliterated activity”.
Turning to `NC(=S)c1cnccn1` [compound 13], the “antimycobacterial activity (in words)” value in data set [1] was “inactive or weakly active”.
The same measure, in the same setting: for `CC(C)Nc1cnc(C(=O)[O-])cn1.[Na+]` [compound 71, Sodium 5-(2-propylamino)pyrazine-2-carboxylate] the value was “Loss of potency”.
As to `CC(C)Nc1nccnc1C(=O)[O-].[Na+]` [compound 55, Sodium 3-(2-propylamino)pyrazine-2-carboxylate], in data set [2], the “shift in growth inhibition potency” value is recorded as “moderate shift”.
Still for that read-out and setting: for `CCCNc1nccnc1C(=O)[O-].[Na+]` [compound 54, Sodium 3-(propylamino)pyrazine-2-carboxylate] the value was “moderate shift”.
Turning to `c1cnc(-c2nnn[nH]2)cn1` [compound 12, 2-(1H-Tetrazol-5-yl)pyrazine], in data set [1], the “antimycobacterial activity (in words)” value is “inactive or weakly active”.
The same measure, in the same setting: for `O=C([O-])c1nccnc1N1CCC2(CC1)CC2.[Na+]` [compound 66, Sodium 3-(6-azaspiro[2,5]octan-6-yl)pyrazine-2-carboxylate] the value was “abolished activity”; for `O=C([O-])c1nccnc1N1CCCCC1.[Na+]` [compound 63, Sodium 3-(piperidin-1-yl)pyrazine-2-carboxylate], “abolished activity”.
